Where two headings read alike, the source gives them in different places.
Experiments:
Agam\Orco = target: T1, Agam\Orco (Anopheles gambiae, UniProt Q7QCC7); assay: cell-based; assay type: cell-based; details: for inhibition at 3000 µM: read-out: inhibition of Agam\Orco (OLC12 response) at 3 mM; for inhibition at 3000 µM / inhibition of Agam\Orco (OLC12 response) at 3 mM: 3 mM compound, 30 µM OLC12
T1 construct: expressed in transfected cells; host or cells: Xenopus laevis oocytes injected with capped cRNA (plasmid pT7TS, gift of L. Zwiebel)
T1 sequence (Q7QCC7 1-478): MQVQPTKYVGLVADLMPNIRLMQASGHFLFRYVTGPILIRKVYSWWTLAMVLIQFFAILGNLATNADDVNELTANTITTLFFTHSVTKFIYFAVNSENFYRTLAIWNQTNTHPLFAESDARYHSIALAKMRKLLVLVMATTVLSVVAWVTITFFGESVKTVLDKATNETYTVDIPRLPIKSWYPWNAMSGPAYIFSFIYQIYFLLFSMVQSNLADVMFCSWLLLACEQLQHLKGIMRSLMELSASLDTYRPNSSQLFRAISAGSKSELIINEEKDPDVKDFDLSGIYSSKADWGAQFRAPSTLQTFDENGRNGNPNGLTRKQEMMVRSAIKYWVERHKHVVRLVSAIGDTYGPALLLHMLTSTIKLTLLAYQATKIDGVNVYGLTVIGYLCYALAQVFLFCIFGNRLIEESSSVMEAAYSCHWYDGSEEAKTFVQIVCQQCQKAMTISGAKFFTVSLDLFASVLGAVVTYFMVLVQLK
Description: A 2 hr incubation with collagenase B (Roche) was used to remove follicle cells from oocytes. Capped cRNA for Agam\Orco was synthesized using mMessage mMachine kits (Thermo Fisher Scientific). 25 ng of cRNA was injected into stage V–VI oocytes, followed by a 2–5 day incubation at 18 °C in Barth’s saline (in mM: 88 NaCl, 1 KCl, 2.4 NaHCO3, 0.3 CaNO3, 0.41 CaCl2, 0.82 MgSO4, 15 HEPES, pH 7.4, and 0.05 g/L tetracycline, 0.05 g/L ciprofloxacin, 0.1 g/L amikacin) prior to electrophysiological recordings.
(§1) An automated parallel electrophysiology system (OpusExpress 6000 A, Molecular Devices) was used to record Orco agonist (OLC12) or odorant induced currents under two-electrode voltage clamp. Oocytes were perfused with ND96 (in mM: 96 NaCl, 2 KCl, 1 CaCl2, 1 MgCl2, 5 HEPES, pH 7.4). DMSO was used to prepare 1 M or 100 mM stock solutions of test compounds, which were then diluted in ND96 on the day of the experiment. Compounds were applied at a flow rate of 1.0 mL/min, with extensive washing in ND96 at 4.6 mL/min between applications. Micropipettes with resistances of 0.2–2.0 MΩ were filled with 3 M KCl. The holding potential was −70 mV. Current responses were filtered (4-pole, Bessel, low pass) at 20 Hz (−3 db) and sampled at 100 Hz. OpusXpress 1.1 software (Molecular Devices) was used to capture and store current responses.
To measure antagonist activity at Orco, Agam\Orco was activated by the Orco agonist OLC12[34]. […] The current response to OLC12 in the presence of antagonist candidate was compared to the mean of the preceding two responses to OLC12 alone and presented as a percentage[34],[35]. This value was then normalized to the value obtained when the assay was run in the absence of antagonist candidate (sham).
During development of the training panel (Fig. 2, Tables S1 and S2), all compounds not previously known to be Orco antagonists were tested at a concentration of 3 mM. […] Concentration-inhibition curves were constructed for all compounds eliciting >20 percent inhibition at 3 mM. The same concentration and criteria were used during screening of predicted actives (Fig. 4D) and predicted inactives (Fig. 5C).
Clampfit 9.1 software (Molecular Devices) was used to perform initial analysis of electrophysiological data. Prism 7 (Graphpad) was used for curve fitting. Concentration-inhibition data were fit to the equation: I = Imax/(1 + (X/IC50)^n) where I represents the current response at a given concentration of inhibitor, X; Imax is the maximal response in the absence of inhibitor; IC50 is the concentration of inhibitor present that allows a half maximal response from OLC12; n is the apparent Hill coefficient.

Agam\ORs = test system: Agam\ORs; set-up: method as in ref 2-5 (a number printed in a supplementary file, which may have a reference list of its own: not looked up in the article's list); details: Or2, Or9, Or10, Or11, Or14, Or18, Or20, Or38, Or41, Or50, Or57; cited from earlier work
Dmel\Or69a = test system: Dmel\Or69a; set-up: method as in ref 1 Münch, D., Galizia, C.G. DoOR 2.0 (2016); details: ref 1 Münch, D., Galizia, C.G. DoOR 2.0 (2016); cited from earlier work
Dmel\Or71a = test system: Dmel\Or71a; set-up: method as in ref 1 Münch, D., Galizia, C.G. DoOR 2.0 (2016); details: ref 1 Münch, D., Galizia, C.G. DoOR 2.0 (2016); cited from earlier work
Cqui\Or21 + Cqui\Orco = assay: Inhibition of heteromeric OR in oocytes (3-methylindole or OLC12 activation); assay type: cell-based, Culex quinquefasciatus; details: Orco agonist activation of Cqui\Or21 + Cqui\Orco
Description: as §1
(§2) To measure the ability of Orco antagonists to inhibit odorant activation, oocytes expressing heteromeric ORs (Orco + ORX) were exposed to a 30 sec application of odorant followed by a 20 min wash. Oocytes were then exposed to a 90 sec application of Orco antagonist, immediately followed by a 30 sec co-application of Orco antagonist and odorant. The current response to odorant in the presence of Orco antagonist was compared to the preceding response to odorant alone and represented as a percentage. This value was then normalized to the value obtained when the assay was run in the absence of antagonist (sham).
(§3) Figure S3. Effects of Orco antagonists on heteromeric ORs. […]
(§4) heteromeric complexes of odorant specificity subunits and Orco. The Orco antagonists tested were 3-isopropyl-6-methyl-catechol (3 I6 MC), a potent compound from the input training set, and two compounds id e ntified in Fig u re 4 an d Ta b le 1 : 2-tert-butyl-6-methylphenol (B MP ) and linalyl formate (LF) . These compounds were tested for antagonist activity against odorant activation of three ORs from Anopheles gambiae (Agam\Or28 + Agam\Orco, Agam\Or39 + A ga m\Orco, Agam\Or65 + A ga m\Orco), o ne O R fro m Culex quinquefasciatus, the southern house mosquito (Cq u i\Or21 + Cqui\Orco) an d on e O R f ro m Drosophila melanogaster (Dme l\Or35a + Dmel\Orco). Each OR was activated by its cognate odorant agonist applied at an approximate EC50 concentration. […]
(§5) SEM (n = 4). […] Statistical significance of the data in each panel was assessed by one-way analysis of variance followed by Dunnett’s multiple comparison test using the pre-normalized values for each antagonist compared to the values obtained in the sham recordings (*, p < 0 .0 5; **, p < 0. 01; ***, p < 0 . 00 1 ).

Dmel\Or35a + Dmel\Orco = target: T2, Dmel\Or35a + Dmel\Orco (Drosophila melanogaster, UniProt Q9VNB5); assay: Inhibition of heteromeric OR in oocytes (hexanol or OLC12 activation); assay type: cell-based; details: Orco agonist activation of Dmel\Or35a + Dmel\Orco
T2 construct: expressed in transfected cells; host or cells: Xenopus laevis oocytes
T2 sequence (Q9VNB5 1-486): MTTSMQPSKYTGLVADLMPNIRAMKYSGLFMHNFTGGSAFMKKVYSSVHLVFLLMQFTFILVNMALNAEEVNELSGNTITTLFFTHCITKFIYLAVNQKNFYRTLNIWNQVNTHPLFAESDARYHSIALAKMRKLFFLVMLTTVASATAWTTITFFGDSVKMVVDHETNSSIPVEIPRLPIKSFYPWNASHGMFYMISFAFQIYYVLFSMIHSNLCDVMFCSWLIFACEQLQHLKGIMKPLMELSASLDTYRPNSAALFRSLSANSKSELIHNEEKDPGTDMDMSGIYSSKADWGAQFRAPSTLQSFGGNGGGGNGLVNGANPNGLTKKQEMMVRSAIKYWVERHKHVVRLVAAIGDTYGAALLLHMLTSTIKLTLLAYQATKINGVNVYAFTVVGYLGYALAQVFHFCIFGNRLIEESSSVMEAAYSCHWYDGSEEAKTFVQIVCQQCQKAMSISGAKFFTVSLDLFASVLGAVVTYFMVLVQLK
T2 sequence (Q9V3Q2 1-409 partner): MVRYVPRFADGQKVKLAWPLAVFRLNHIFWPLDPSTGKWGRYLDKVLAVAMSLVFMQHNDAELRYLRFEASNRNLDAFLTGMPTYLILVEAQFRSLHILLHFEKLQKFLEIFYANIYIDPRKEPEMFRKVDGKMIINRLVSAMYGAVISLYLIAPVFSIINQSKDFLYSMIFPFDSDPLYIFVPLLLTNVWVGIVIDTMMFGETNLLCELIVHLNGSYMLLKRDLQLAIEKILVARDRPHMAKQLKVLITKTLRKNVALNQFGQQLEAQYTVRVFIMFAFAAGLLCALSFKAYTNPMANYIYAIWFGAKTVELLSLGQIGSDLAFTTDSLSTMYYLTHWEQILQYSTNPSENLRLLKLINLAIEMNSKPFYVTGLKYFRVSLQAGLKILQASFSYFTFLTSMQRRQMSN
Description: as §1, §2, §3, §4, §5

D. melanogaster larvae = assay: Larval chemotaxis assay (attraction to ethyl acetate); assay type: in vivo, Drosophila melanogaster; details: 10 µL of EA diluted 1:10^−6 in mineral oil vs mineral oil alone; mean ± SEM
Description: We have previously provided a detailed description of these methods. Briefly, Canton-S (CS) flies were used as wild type (wt). The experimental chamber was a 100 × 15 mm polystyrene Petri dish (VWR) with 20 mL of 1.1% agarose coating the bottom. In this assay, 50 third-instar larvae were placed inside a “starting circle” at the center of the plate (the circle was drawn on the outside bottom of the plate). A line was also drawn that divided the plate in half. Small filter paper discs (d = 6 mm, Whatman Cellulose Filter Paper, # 1030 023) were placed on opposite sides of the plate (see Fig. 8A). Onto each filter paper disc was placed 10 μL of solution, containing either vehicle of dilution (mineral oil), odorant attractant (EA, diluted in mineral oil) or an Orco antagonist compound (diluted in mineral oil). The sides of the plate on which the compounds or vehicle were placed were alternated from experiment to experiment.
In order to test Orco antagonists for the ability to affect the chemotaxis assay, a large (d = 9 cm) filter paper (Whatman Filter Paper # D00161-S) was adhered with double-sided tape to the inside of the Petri dish lid. This allowed the larvae to be exposed to Orco antagonists in an airborne context. For light repulsion experiments, we used a Zeiss CL6000 LED light source at 76% intensity. Following the 5 min migratory period, plates were photographed, coded and then blind counted. Any larvae still within the starting circle or touching the center line were excluded from the analysis. A Response Index (RI) was calculated as RI = (S − C)/(S + C), where S is the number of larvae on the stimulus (EA) side and C is the number of larvae on the control (mineral oil) side. RI = 1 would indicate complete attraction, RI = −1 would indicate complete repulsion, and RI = 0 would indicate no preference. Statistical significance was assessed using a one-way analysis of the variance followed by Dunnett’s’s post-test.

Dmel\Or19a = test system: Dmel\Or19a; set-up: method as in ref 1 Münch, D., Galizia, C.G. DoOR 2.0 (2016); details: ref 1 Münch, D., Galizia, C.G. DoOR 2.0 (2016); cited from earlier work
[1] = Table S1, training actives, Agam\Orco activated by 30 µM OLC12, mean ± SEM (n = 3-8), read-out: IC50

## CCc1ccccc1O [2-ethylphenol]
Agam\Orco
  IC50: 261 ± 14 µM
Agam\Orco; Agam\Orco IC50 compared with BMP
  loss of potency relative to BMP: 5.5 fold
Agam\ORs
  activity at Agam\ORs: activation
Dmel\Or69a
  scaled response from DoOR (max = 1.0): 0.356

## C=Cc1ccc(O)cc1 [4-hydroxystyrene]
Dmel\Or71a
  scaled response from DoOR (max = 1.0): 0.131

## CC(O)CCc1ccccc1 (stereo not drawn) [4-phenyl-2-butanol]
Dmel\Or71a
  scaled response from DoOR (max = 1.0): 0.063

## CCn1c(SCC(=O)Nc2ccc(C(C)C)cc2)nnc1-c1ccncc1 [OLC12, 2-((4-Ethyl-5-(4-pyridinyl)-4H-1,2,4-triazole-3-yl)sulfanyl)-N-(4-isopropylphenyl)acetamide, reference compound]
Cqui\Or21 + Cqui\Orco
  approximate EC25: ~3 µM
Dmel\Or35a + Dmel\Orco
  approximate EC25: ~10 µM

## CCOC(C)=O [ethyl acetate, reference compound]
Agam\Orco
  inhibition at 3000 µM: ≤ 20%
D. melanogaster larvae
  response index (RI): 0.76 ± 0.08

## Cc1ccc(C(C)C)cc1 [p-cymene]
Dmel\Or71a
  scaled response from DoOR (max = 1.0): 0.063

## c1cscn1 [thiazole]
Agam\Orco
  inhibition of Agam\Orco (OLC12 response) at 3 mM: ≤ 20%

## c1ccsc1 [thiophene]
Agam\Orco; [1]
  IC50: 2670 ± 147 µM

## Cc1ccc(C(C)C)c(O)c1 [thymol]
Agam\Orco; Agam\Orco IC50 compared with 3I6MC
  change in potency relative to 3I6MC: slightly decreased potency
Agam\Orco; [1]
  IC50: 61 ± 10 µM

## Cc1ccccc1 [toluene]
Agam\Orco; [1]
  IC50: 1600 ± 243 µM

## O=C/C=C/c1ccccc1 [trans-cinnamaldehyde]
Agam\Orco
  IC50: 1870 ± 94 µM
Dmel\Or19a
  scaled response from DoOR (max = 1.0): 0.112

## CN(C)C [trimethylamine]
Agam\Orco
  inhibition of Agam\Orco (OLC12 response) at 3 mM: ≤ 20%

## NCCc1c[nH]c2ccccc12 [tryptamine]
Agam\Orco; [1]
  IC50: 48 ± 10 µM

## N[C@@H](Cc1c[nH]c2ccccc12)C(=O)O [tryptophan]
Agam\Orco
  inhibition at 3000 µM: ≤ 20%

## COc1ccccc1OC [veratrole]
Agam\Orco; [1]
  IC50: 5420 ± 845 µM

## CC(C=O)=Cc1ccccc1 [α-methyl cinnamaldehyde]
Agam\Orco; [1]
  IC50: 187 ± 40 µM

## CC1=CCC2CC1C2(C)C (stereo not drawn) [α-pinene]
Agam\Orco
  inhibition at 3000 µM: ≤ 20%

## CCCCCCC1CCC(=O)O1 (stereo not drawn) [γ-decalactone]
Agam\Orco; [1]
  IC50: 948 ± 153 µM

## (+)-isopulegol
Agam\Orco; [1]
  IC50: 1370 ± 285 µM

## (−)-terpinen-4-ol
Agam\Orco; [1]
  IC50: 678 ± 78 µM
